From PubChem BioAssay AID504352 (Southern Research Specialized Biocontainment Screening …, 2011)
pIC50: −log10 of the molar value. Calls of active or inactive are those of the source.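 How the source made its calls: active means compounds cutting HIV-1 replication by at least half at any tested dose; inactive means the rest.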

Tested on: MAGI-CCR5 cells, HIV-1 BaL, beta-gal luminescence, 48 h
Assay: R5 HIV-1 replication inhibitors in MAGI cells, MAGI-CCR5 cells, beta-gal luminescence, 2% serum, set 3 (AID 504352)

SMILES | pIC50 | IC50
CCOC(=O)C1=C(C)N=c2sc(=Cc3ccc(OCC(=O)O)cc3)c(=O)n2C1c1ccc(OC)cc1OC (stereo not drawn) | 4.35 | –
Cc1c2c(=O)n(-c3nc4ccccc4s3)nc-2cc(O)n1CCc1cccs1 | 5.40 | –
CCOC(=O)C1=C(C)N=c2sc(=Cc3ccc(OCC(=O)O)cc3)c(=O)n2C1c1cc(OC)c(OC)c(OC)c1 (stereo not drawn) | – | > 100 µM (inactive)
Cc1c2c(=O)n(-c3nc4ccccc4s3)nc-2cc(O)n1CCc1ccc(O)cc1 | 5.55 | –
Cc1c2c(=O)n(-c3nc4ccccc4s3)nc-2cc(O)n1Cc1ccccc1Cl | 5.43 | –
O=C(O)CCCN1C(=O)/C(=C\c2ccc(-c3cccc(Cl)c3)o2)SC1=S | 4.82 | –
O=C(O)c1ccc(C[n+]2c(-c3ccccc3)csc2Nc2ccccc2)cc1 | 4.31 | –
CCOC(=O)C1=C(C)N=c2sc(=Cc3ccc(OCC(=O)O)cc3)c(=O)n2C1c1ccccc1 (stereo not drawn) | 4.36 | –
Nc1sc2ccccc2[n+]1Cc1ccc(C(=O)O)cc1 | – | > 100 µM (inactive)
Cc1c2c(=O)n(-c3nc4ccccc4s3)nc-2cc(O)n1C1CC1 | 6.25 | –
CCOC(=O)C1=C(C)N=c2s/c(=C\c3ccc(OCC(=O)O)cc3)c(=O)n2C1c1ccc(OC)c(OCC)c1 (stereo not drawn) | 4.47 | –
CS(=O)(=O)C1=NSC2=NC(=O)/C(=C\c3cccn3-c3ccc(Cl)c(Cl)c3)C(=N)N21 | 4.38 | –
O=C(O)CCCN1C(=O)/C(=C\c2ccc(-c3ccc(Cl)cc3)o2)SC1=S | 5.54 | –
CS(=O)(=O)C1=NSC2=NC(=O)/C(=C\c3cccn3-c3ccc(F)cc3)C(=N)N21 | 4.45 | –
O=C(O)CCC(C(=O)O)N1C(=O)/C(=C\c2ccco2)SC1=S (stereo not drawn) | – | > 100 µM (inactive)
O=C(O)CCCN1C(=O)/C(=C/c2ccc(-c3cccc(C(F)(F)F)c3)o2)SC1=S | 4.49 | –
CC1=C(C(=O)OC(C)C)C(c2ccc(Cl)cc2)n2c(s/c(=C\c3ccc(OCC(=O)O)cc3)c2=O)=N1 (stereo not drawn) | – | > 100 µM (inactive)
COc1ccc(CCn2c(O)cc3nn(-c4nc5ccccc5s4)c(=O)c-3c2C)cc1 | 4.87 | –
O=C(O)CCCN1C(=O)/C(=C/c2ccc(-c3ccc(Cl)c(Cl)c3)o2)SC1=S | 4.56 | –
Cc1ccc(-n2cccc2/C=C2/C(=N)N3C(=NC2=O)SN=C3S(C)(=O)=O)cc1C | 4.44 | –
O=C(O)CCCN1C(=O)/C(=C\c2ccc(-c3ccc(Br)cc3)o2)SC1=S | – | > 100 µM (inactive)
CS(=O)(=O)C1=NSC2=NC(=O)/C(=C\c3cccn3-c3cccc(Cl)c3)C(=N)N21 | 4.28 | –
COc1ccccc1NS(=O)(=O)c1ccc2c(c1)C1C=CCC1C(c1ccc(C(=O)O)cc1)N2 (stereo not drawn) | 5.54 | –
COc1ccccc1Cn1c(O)cc2nn(-c3nc4ccccc4s3)c(=O)c-2c1C | 5.72 | –
CCOC(=O)C1=C(C)N=c2sc(=Cc3ccc(OCC(=O)O)cc3)c(=O)n2C1c1ccccc1OC (stereo not drawn) | 4.35 | –
CCOc1ccc(-n2cccc2/C=C2/C(=N)N3C(=NC2=O)SN=C3S(C)(=O)=O)cc1 | 4.61 | –
CS(=O)(=O)C1=NSC2=NC(=O)/C(=C\c3cccn3-c3cccc(C(F)(F)F)c3)C(=N)N21 | 4.33 | –

SMILES | pIC50 | IC50
COc1ccc(-c2ccc(/C=C3\SC(=S)N(CCCC(=O)O)C3=O)o2)cc1 | 4.25 | –
CS(=O)(=O)C1=NSC2=NC(=O)/C(=C\c3cccn3-c3ccc(Br)cc3)C(=N)N21 | 4.36 | –
O=C(O)CCCN1C(=O)/C(=C/c2cc3ccccc3o2)SC1=S | 5.12 | –
CS(=O)(=O)C1=NSC2=NC(=O)/C(=C\c3cccn3-c3ccc(Cl)cc3)C(=N)N21 | 4.38 | –
CS(=O)(=O)C1=NSC2=NC(=O)/C(=C\c3cccn3-c3cccc(F)c3)C(=N)N21 | 4.41 | –
O=C(O)c1ccc([C@@H]2Nc3ccc(S(=O)(=O)Nc4cccc5ccccc45)cc3[C@@H]3C=CC[C@@H]32)cc1 | 5.43 | –
Cc1c2c(=O)n(-c3nc4ccccc4s3)nc-2cc(O)n1CCC(C)C | 5.67 | –
O=C(O)c1ccc(C2Nc3ccc(S(=O)(=O)Nc4cc(Cl)ccc4Cl)cc3C3C=CCC32)cc1 (stereo not drawn) | 5.77 | –
COc1cccc(-n2cccc2/C=C2/C(=N)N3C(=NC2=O)SN=C3S(C)(=O)=O)c1 | 4.43 | –
COc1ccc(-n2cccc2/C=C2/C(=N)N3C(=NC2=O)SN=C3S(C)(=O)=O)cc1Cl | 4.49 | –
CCc1ccc(-c2ccc(/C=C3\SC(=S)N(CCCC(=O)O)C3=O)o2)cc1 | 5.46 | –
O=C(O)c1ccc(C[n+]2c(-c3ccc([N+](=O)[O-])cc3)csc2Nc2ccccc2)cc1 | 4.82 | –
COc1cccc(C2C(C(=O)Nc3ccccc3)=C(C)N=c3sc(=Cc4ccc(OCC(=O)O)cc4)c(=O)n32)c1 (stereo not drawn) | 4.26 | –
Cc1ccc(-n2cccc2/C=C2/C(=N)N3C(=NC2=O)SN=C3S(C)(=O)=O)cc1 | 4.45 | –
Cc1c2c(=O)n(-c3nc4ccccc4s3)nc-2cc(O)n1Cc1ccc(F)cc1 | 5.41 | –
Cc1c2c(=O)n(-c3nc4ccccc4s3)nc-2cc(O)n1Cc1cccnc1 | 5.71 | –
CCOC(=O)C1=C(c2ccccc2)N=c2s/c(=C\c3ccc(OCC(=O)O)cc3)c(=O)n2C1c1cccc(OC)c1 (stereo not drawn) | 5.18 | –
CCOC(=O)C1=C(C)N=c2s/c(=C\c3ccc(OCC(=O)O)cc3)c(=O)n2C1c1ccc(Cl)cc1 (stereo not drawn) | 4.42 | –
Cc1ccc(-c2ccc(/C=C3\SC(=S)N(CCCC(=O)O)C3=O)o2)cc1 | 4.96 | –
O=C(O)CCCN1C(=O)/C(=C\c2ccc(-c3ccc(F)cc3)o2)SC1=S | 4.43 | –
CCOC(=O)C1=C(C)N=c2sc(=Cc3ccc(OCC(=O)O)cc3)c(=O)n2C1c1ccc(F)cc1 (stereo not drawn) | 4.44 | –
COc1ccc(Cn2c(O)cc3nn(-c4nc5ccccc5s4)c(=O)c-3c2C)cc1 | 5.39 | –
CCc1ccc(-n2cccc2/C=C2/C(=N)N3C(=NC2=O)SN=C3S(C)(=O)=O)cc1 | 4.44 | –
Cc1c2c(=O)n(-c3nc4ccccc4s3)nc-2cc(O)n1Cc1ccncc1 | 5.36 | –
CS(=O)(=O)C1=NSC2=NC(=O)/C(=C\c3cccn3-c3cc(Cl)cc(Cl)c3)C(=N)N21 | 4.47 | –
Cc1c2c(=O)n(-c3nc4ccccc4s3)nc-2cc(O)n1Cc1cccs1 | 5.64 | –
